Laboratory results published in patent US9976141B2, “Compositions and methods for inhibiting gene expression of Hif2alpha” (Arrowhead Madison Inc., priority 2015, dated 2018).

Test system: human (tumor) Hif2α (EPAS1) mRNA
Experiment: Hif2α knockdown in orthotopic RCC tumor bearing mice, single injection of RNAi trigger-delivery polymer conjugate, RT-qPCR (Table 7)
Format: in vivo
Conditions: single tail vein injection, relative to isotonic glucose
Outline: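 Female athymic nude mice carried orthotopic A498-SEAP ccRCC kidney tumours, used 5–6 weeks after implantation. They received one tail-vein injection of RGD-targeted Hif2α RNAi trigger–polymer conjugate or isotonic glucose. Tumour Hif2α mRNA was measured by TaqMan RT-qPCR normalised to CycA (ΔΔCT) and expressed relative to glucose-treated mice.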

[1] = RNAi trigger 80 μg, polymer 126 400 μg
[2] = RNAi trigger 50 μg, polymer 064 125 μg
[3] = RNAi trigger 100 μg, polymer 064 250 μg

## AD01020 (antisense TGUAAAACAAUUGUGUACUTT; sense AGUACACAAUUGUUUUACAT; Hif2alpha RNAi agent antisense strand; modified_base 2,4,8,10,12,14,16,18 /mod_base = “2′-deoxy-2′-fluoro corresponding nucleoside”; modified_base 3,5,7,9,11,13,15,17,19 /mod_base = “2′-O-methyl corresponding nucleoside”; modified_base 6 /mod_base = “2′-3′ seco corresponding nucleotide”; modified_base 21 /mod_base = “5′-phosphorothioate corresponding nucleotide”; Hif2alpha RNAi agent sense strand; modified_base 1,3,5,7,9,11,13,15,17,19 /mod_base = “2′-deoxy-2′-fluoro corresponding nucleoside”; modified_base 2,4,6,8,10,12,14,16,18 /mod_base = “2′-O-methyl corresponding nucleoside”; modified_b)
[1]
  Relative Expression day 4 (Hif2α mRNA in kidney tumor): 0.94

## AD03260 (antisense AUUCAUGAAAUCGUUACGUUG; sense ACGUAACGAUUUCAUGAATT; Hif2alpha RNAi agent antisense strand; modified_base 2,8,10,14 /mod_base = “2′-deoxy-2′-fluoro corresponding nucleoside”; modified_base 1,3,4,5,6,7,9,11,12,13,15,16,17,18,19,20,21 /mod_base = “2′-O-methyl corresponding nucleoside”; modified_base 2,3,20,21 /mod_base = “5′-phosphorothioate corresponding nucleotide”; Hif2alpha RNAi agent sense strand; modified_base 7,8,9 /mod_base = “2′-deoxy-2′-fluoro corresponding nucleoside”; modified_base 1,2,3,4,5,6,10,11,12,13,14,15,16,17 /mod_base = “2′-O-methyl corresponding nucleoside”; modified_base 20 /mod_base = “3′-3′-linked nucleotide”; modified_b)
[2]
  Relative Expression day 4 (Hif2α mRNA in kidney tumor): 0.175

## AD01887 (antisense UCUAGCAACAAAACCUUAATT; sense UUAAGGUUUUGUUGCUAGAT; Hif2alpha RNAi agent antisense strand; modified_base 2,4,6,9,10,13,14,16,18 /mod_base = “2′-deoxy-2′-fluoro corresponding nucleoside”; modified_base 1,3,5,7,8,11,12,15,17,19 /mod_base = “2′-O-methyl corresponding nucleoside”; modified_base 2,3,21 /mod_base = “5′-phosphorothioate corresponding nucleotide”; Hif2alpha RNAi agent sense strand; modified_base 3,5,8,9,13,15,17 /mod_base = “2′-deoxy-2′-fluoro corresponding nucleoside”; modified_base 1,2,4,6,7,10,11,12,14,16,18,19 /mod_base = “2′-O-methyl corresponding nucleoside”; modified_base 20 /mod_base = “3′-3′-linked nucleotide”; modified_base)
[3]
  Relative Expression day 4 (Hif2α mRNA in kidney tumor): 0.329

## AD01885 (antisense UUUCAUGAAAUCGUUACGUTT; sense UAUACGUAACGAUUUCAUGAAAT; Hif2alpha RNAi agent antisense strand; modified_base 2,4,6,8,10,14,16,18 /mod_base = “2′-deoxy-2′-fluoro corresponding nucleoside”; modified_base 1,3,5,7,9,11,12,13,15,17,19 /mod_base = “2′-O-methyl corresponding nucleoside”; modified_base 2,3,21 /mod_base = “5′-phosphorothioate corresponding nucleotide”; Hif2alpha RNAi agent sense strand; modified_base 2 modified base = “2′-hydroxy corresponding nucleoside”; modified_base 4,6,8,10,11,12,14,16,18,20,22 /mod_base = “2′-deoxy-2′-fluoro corresponding nucleoside”; modified_base 1,3,5,7,9,13,15,17,19,21 /mod_base = “2′-O-methyl corresponding nucl)
[3]
  Relative Expression day 4 (Hif2α mRNA in kidney tumor): 0.146

## AD03011 (antisense UUUCAUGAAAUCGUUACGUUG; sense UAUACGUAACGAUUUCAUGAAAT; Hif2alpha RNAi agent antisense strand; modified_base 2,4,6,8,10,14,16,18 /mod_base = “2′-deoxy-2′-fluoro corresponding nucleoside”; modified_base 1,3,5,7,9,11,12,13,15,17,19,20,21 /mod_base = “2′-O-methyl corresponding nucleoside”; modified_base 2,3,20,21 /mod_base = “5′-phosphorothioate corresponding nucleotide”; Hif2alpha RNAi agent sense strand; modified_base 2 modified base = “2′-hydroxy corresponding nucleoside”; modified_base 10,12,16 /mod_base = “2′-deoxy-2′-fluoro corresponding nucleoside”; modified_base 1,3,4,5,6,7,8,9,11,13,14,15,17,18,19,20,21,22 /mod_base = “2′-O-methyl correspon)
[2]
  Relative Expression day 4 (Hif2α mRNA in kidney tumor): 0.183

## AD01408 (antisense TUUCAUGAAAUCGUUACGUCGGCUAU; sense UAUAUCGACGUAACGAUUUCAUGAAA; Hif2alpha RNAi agent antisense strand; modified_base 25 modified base = “2′-hydroxy corresponding nucleoside”; modified_base 2,4,6,8,10,12,14,16,18,20 /mod_base = “2′-deoxy-2′-fluoro corresponding nucleoside”; modified_base 3,5,7,11,13,15,17,19,21,22,23,24,26 /mod_base = “2′-O-methyl corresponding nucleoside”; modified_base 9 /mod_base = “2′-3′ seco corresponding nucleotide”; modified_base 2,3,23,; Hif2alpha RNAi agent sense strand; modified_base 2,4 modified base = “2′-hydroxy corresponding nucleoside”; modified_base 6,8,10,12,14,16,18,20,22,24,26 /mod_base = “2′-deoxy-2′-fluoro correspondi)
RNAi trigger 150 μg, polymer 100A 300 μg
  Relative Expression day 4 (Hif2α mRNA in kidney tumor): 0.50

## AD01256 (antisense TUUCAUGAAAUCGUUACGUTT; sense ACGUAACGAUUUCAUGAAAT; Hif2alpha RNAi agent antisense strand; modified_base 2,4,6,10,12,14,16,18 /mod_base = “2′-deoxy-2′-fluoro corresponding nucleoside”; modified_base 3,5,7,9,11,13,15,17,19 /mod_base = “2′-O-methyl corresponding nucleoside”; modified_base 8 /mod_base = “2′-3′ seco corresponding nucleotide”; modified_base 21 /mod_base = “5′-phosphorothioate corresponding nucleotide”; Hif2alpha RNAi agent sense strand; modified_base 1,3,5,7,9,11,13,15,17,19 /mod_base = “2′-deoxy-2′-fluoro corresponding nucleoside”; modified_base 2,4,6,8,10,12,14,16,18 /mod_base = “2′-O-methyl corresponding nucleoside”; modified_b)
[1]
  Relative Expression day 4 (Hif2α mRNA in kidney tumor): 0.22
